# Reference: PMC9386018, “A lymphatic-absorbed multi-targeted kinase inhibitor for myelofibrosis therapy” (Nature Communications, 2022)
# Experiments:
# [1] = test system: MPL^W515L mouse model of myelofibrosis; test: MPL^W515L MF mouse model: survival; format: in vivo; conditions: MPL^W515L mice, oral 400 mg kg^−1 daily
# Procedure: (§1) Generation of the MPL^W515L mutant MF mouse model was similar to previously described methods. Briefly, female donor BALB/c mice were treated with 5-fluorouracil at 150 mg kg^−1 intraperitoneal for 5 d before harvesting bone marrow. Hematopoietic stem and progenitor cells were enriched with CD117 magnetic beads (Miltenyi Biotec), transduced with retrovirus containing MSCV-hMPL W515L-IRES-GFP, then 50,000 transduced HSPCs along with 300,000 total non-stem cells were injected intravenously into lethally irradiated female BALB/c recipients. Development of MF was evaluated by spleen volumes using MRI beginning ~14 d following bone marrow transplantation (BMT) as outlined below, continuing weekly until end of the study. Mice were separated into equal groups based on spleen size ~14–21 d post-BMT, then treated with vehicle (Maisine CC) or LP-182 at 400 mg kg^−1 daily by oral gavage for 14–28 d or until mice were euthanized using guidelines for end stage illness and humane endpoints. Untreated healthy control animals were used for experimental comparisons. […] Soluble protein extracts were isolated by centrifugation at 15,000 x g for 15 min at 4 °C, quantified using Micro BCA protein assay (Thermo Scientific), then mixed with reducing 6X SDS-PAGE loading dye, heated for 8 min at 95 °C, and stored at −20 °C until immuno-blot analysis. […]
# [2] = test system: MPL^W515L mouse model of myelofibrosis; test: MPL^W515L MF mouse model: histology of spleen, liver and bone marrow; format: in vivo; conditions: MPL^W515L mice, oral 400 mg kg^−1 daily, 28 d
# Procedure: as §1
structure (smiles),measurement,setting,value
"O=C(NOCCOCCOCCOCCC(=O)N1CCN(c2cnc3ccc(-c4cnc(Cl)c(NS(=O)(=O)c5ccc(F)cc5)c4)cc3n2)CC1)c1ccc(F)c(F)c1Nc1ccc(I)cc1F [LP-182, N-(2-(2-(2-(3-(4-(7-(6-chloro-5-((4-fluorophenyl)sulfonamido)pyridin-3-yl)quinoxalin-2-yl)piperazin-1-yl)-3-oxopropoxy)ethoxy)ethoxy)ethoxy)-3,4-difluoro-2-((2-fluoro-4-iodophenyl)amino)benzamide]",overall survival (Kaplan-Meier),[1],significantly improved overall survival
same,survival to planned end of study,[1]; 28 d treatment,survived 50 d post-transplant
same,"extramedullary hematopoiesis, number of MKs and MPL^W515L-positive MKs",[2],reduced
same,reticulin fibrosis in bone marrow,[2],diminution of reticulin fibrosis
